From ChEMBL document CHEMBL5143612, “Antibacterial activity evaluation of vinyl sulfones against global predominant methicillin-resistant Staphylococcus aureus USA300” (Bioorg Med Chem Lett, 2022) come the findings set out here.

For data set [1], the system named is Staphylococcus aureus. Briefly: Antibacterial activity against community-associated methicillin-resistant Staphylococcus aureus USA300 SF8300 assessed as inhibition of bacterial growth by measuring zone of inhibition at 30 ug incubated for 18 to 20 hrs by CLSI based disk diffusion analysis. The data set is classed as functional. As to conditions: time 18-20 hrs, read-out: DIZ. A general note: Agar diffusion results depend on both activity and mobility in agar.

Data set [2] deals with Staphylococcus aureus. Briefly: Antibacterial activity against methicillin-susceptible Staphylococcus aureus ATCC 25923 assessed as inhibition of bacterial growth by measuring zone of inhibition at 30 ug incubated for 18 to 20 hrs by CLSI based disk diffusion analysis. Type of data set: functional. The following applies: time 18-20 hrs, read-out: DIZ.
Data set [3] deals with Pseudomonas aeruginosa. Briefly: Antibacterial activity against Pseudomonas aeruginosa assessed as inhibition of bacterial growth by measuring zone of inhibition at 30 ug incubated for 18 to 20 hrs by CLSI based disk diffusion analysis. The data set is classed as functional. As to conditions: time 18-20 hrs, read-out: DIZ.
Data set [4] relates to Staphylococcus aureus. Briefly: Antibacterial activity against community-associated methicillin-resistant Staphylococcus aureus USA300 SF8300 assessed as inhibition of bacterial growth incubated for 18 to 20 hrs by CLSI based microdilution susceptibility analysis. The data set is classed as functional. As to conditions: time 18-20 hrs. In general terms: Dilution methods test growth across graded concentrations, often in twofold steps.

Data set [5] relates to Staphylococcus aureus. Briefly: Antibacterial activity against methicillin-susceptible Staphylococcus aureus ATCC 29213 assessed as inhibition of bacterial growth incubated for 18 to 20 hrs by CLSI based microdilution susceptibility analysis. The data set is classed as functional. The following applies: time 18-20 hrs.
Data set [6] has as its system Pseudomonas aeruginosa. Briefly: Antibacterial activity against Pseudomonas aeruginosa assessed as inhibition of bacterial growth incubated for 18 to 20 hrs by CLSI based microdilution susceptibility analysis. Type of data set: functional. As to conditions: time 18-20 hrs.
Data set [7] deals with Staphylococcus aureus. Briefly: Bactericidal activity against community-associated methicillin-resistant Staphylococcus aureus USA300 SF8300 assessed as inhibition of bacterial growth incubated for 18 to 20 hrs by CLSI based microdilution susceptibility analysis. The data set is classed as functional. As to conditions: time 18-20 hrs.
Data set [8] has as its system Staphylococcus aureus. Briefly: Bactericidal activity against methicillin-susceptible Staphylococcus aureus ATCC 29213 assessed as inhibition of bacterial growth incubated for 18 to 20 hrs by CLSI based microdilution susceptibility analysis. The data set is classed as functional. The following applies: time 18-20 hrs.
The subject of data set [9] is Pseudomonas aeruginosa. Briefly: Bactericidal activity against Pseudomonas aeruginosa assessed as inhibition of bacterial growth incubated for 18 to 20 hrs by CLSI based microdilution susceptibility analysis. As to conditions: time 18-20 hrs. The data set is classed as functional.
For data set [10], the target named is Albumin (Homo sapiens, UniProt P02768). Briefly: Binding affinity to cysteine residue of human serum albumin assessed as conjugation of compound with protein at 1:1 compound to human serum albumin concentration incubated for 2 hr by LC-MS/MS analysis. Type of data set: cell-free.
Data set [11] has as its target T1, Sortase A (Staphylococcus aureus, UniProt Q9S446).
T1 sequence (Q9S446 whole entry): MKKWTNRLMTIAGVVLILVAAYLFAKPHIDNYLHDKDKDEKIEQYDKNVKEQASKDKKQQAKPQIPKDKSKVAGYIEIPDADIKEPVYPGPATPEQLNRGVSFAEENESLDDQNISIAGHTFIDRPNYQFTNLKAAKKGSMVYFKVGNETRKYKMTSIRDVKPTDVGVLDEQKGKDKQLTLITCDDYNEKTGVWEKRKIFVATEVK
Nature of the data set: Inhibition of Staphylococcus aureus sortase A using Abz/Dnp fluorescent peptide as a substrate measured after 30 mins by fluorescent based analysis.

Data set [12] concerns Staphylococcus aureus. Briefly: Inhibition of methicillin-susceptible Staphylococcus aureus ATCC 29213 bacterial cell adhesion to fibronectin at 0.1 mg/ml followed by compound addition on fibronectin precoated plate measured after 2 hrs by crystal violet dye based analysis. The data set is classed as functional.

Values after ≈ are worked out from the molar mass of the structure shown. Active and inactive are the calls of the source.

Albumin, sequence (P02768 whole entry): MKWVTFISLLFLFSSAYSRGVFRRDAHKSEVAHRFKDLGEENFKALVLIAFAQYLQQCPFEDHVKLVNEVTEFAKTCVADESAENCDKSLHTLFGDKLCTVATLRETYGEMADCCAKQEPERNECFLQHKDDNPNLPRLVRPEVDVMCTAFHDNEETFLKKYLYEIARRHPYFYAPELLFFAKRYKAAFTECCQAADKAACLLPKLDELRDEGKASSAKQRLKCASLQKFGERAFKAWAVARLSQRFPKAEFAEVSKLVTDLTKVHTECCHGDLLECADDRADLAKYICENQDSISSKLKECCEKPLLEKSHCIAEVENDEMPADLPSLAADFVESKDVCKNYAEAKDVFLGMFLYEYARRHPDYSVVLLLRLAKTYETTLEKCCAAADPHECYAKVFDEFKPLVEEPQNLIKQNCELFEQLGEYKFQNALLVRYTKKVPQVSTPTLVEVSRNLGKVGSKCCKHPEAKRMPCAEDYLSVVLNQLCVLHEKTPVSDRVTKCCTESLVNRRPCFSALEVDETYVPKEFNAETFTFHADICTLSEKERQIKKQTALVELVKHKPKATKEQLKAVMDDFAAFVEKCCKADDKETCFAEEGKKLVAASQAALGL

Take `Cc1ccc(S(=O)(=O)/C=C/C#N)cc1`: the zone of inhibition at 30 µg/disc in data set [1] is 27.7 mm; in data set [2] it was 28 mm; in data set [3] it was 12.9 mm. Also, the MIC (in general, the smallest concentration in the dilution series that meets the test's criterion for growth inhibition) worked out at 7.5 µg/mL (≈ 36.2 µM) in [4], 1.88 µg/mL (≈ 9.05 µM) in data set [5] and 120 µg/mL (≈ 579 µM) in data set [6]. The minimum bactericidal concentration (MBC) – broadly, the smallest concentration meeting the test's criterion for killing – in [7] is 60 µg/mL (≈ 289 µM); in [8], 15 µg/mL (≈ 72.4 µM); in [9], greater than 120 µg/mL. The result in [10] was Active. In addition, the midpoint of inhibition in [11], the IC50, lay at 129 µM. For the same molecule, the inhibition result in [12] was “Active”.
